# Measurements from patent publication US11214803B2, “Modulators of YAP1 expression” (Ionis Pharmaceuticals, Inc., priority 2019, dated 2022).
# Strand notation (5' to 3'): a small letter for the sugar, then the base; units joined by * are phosphorothioate-linked, units joined directly phosphodiester-linked; [ ] holds rarer units or linkages, { } end groups; capitals alone tell only the bases. k = constrained ethyl (cEt); [5mC] = 5-methylcytosine; d = 2'-deoxy (DNA)
# System: Yap1 mRNA
# Experiment: Antisense inhibition of human Yap1 in A-431 cells by cEt gapmers, single dose (Example 2, RTS4814)
# Assay type: cell-based
# Conditions: A-431 cells, 5,000 cells per well, free uptake, 2,000 nM modified oligonucleotide, approx. 48 hours, RTS4814, normalized to RIBOGREEN; Table 4; asterisk (*) = targets amplicon region of primer probe set
# In short: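 A-431 cells (5,000/well) received 2,000 nM oligonucleotide by free uptake for about 48 h. Yap1 mRNA was then quantified by RT-qPCR with primer probe set RTS4814, normalized to RIBOGREEN total RNA, and reported as % of untreated control; asterisked values mark oligos inside the amplicon.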
row,Substance,YAP1 (% UTC)
1,716355 (kG*kA*k[5mC]*dG*dG*d[5mC]*dT*dG*d[5mC]*dG*dG*dG*d[5mC]*k[5mC]*kG*kG; antisense) [Compound 716355],96 % UTC
2,716346 (kT*kT*kT*d[5mC]*d[5mC]*d[5mC]*dT*dG*dG*d[5mC]*dG*dG*d[5mC]*kG*kG*k[5mC]; antisense) [Compound 716346],77 % UTC

# Same assay, conditions: Table 5; A-431 cells, 5,000 cells per well, free uptake, 2,000 nM modified oligonucleotide, approx. 48 hours; RTS4814; normalized to RIBOGREEN; Yap1 mRNA relative to untreated control cells
row,Substance,YAP1 (% UTC)
1,716452 (kT*kT*kA*d[5mC]*d[5mC]*dA*dA*dA*dA*d[5mC]*dA*dA*d[5mC]*kT*kA*k[5mC]; antisense) [Compound 716452],98 % UTC
2,716410 (kG*kT*kA*dT*d[5mC]*dA*d[5mC]*d[5mC]*dT*dG*dT*dA*dT*k[5mC]*k[5mC]*kA; antisense) [Compound 716410],52 % UTC
3,716440 (k[5mC]*kT*k[5mC]*dT*dT*d[5mC]*dA*dA*dA*dT*d[5mC]*dA*dG*k[5mC]*kA*kT; antisense) [Compound 716440],45 % UTC

# Same assay, conditions: Table 6; A-431 cells, 5,000 cells per well, free uptake, 2,000 nM modified oligonucleotide, approx. 48 hours; RTS4814; normalized to RIBOGREEN; Yap1 mRNA relative to untreated control cells
row,Substance,YAP1 (% UTC)
1,716357 (k[5mC]*kG*k[5mC]*d[5mC]*d[5mC]*d[5mC]*dG*dG*d[5mC]*dT*d[5mC]*d[5mC]*dA*k[5mC]*kG*kG; antisense) [Compound 716357],127 % UTC
2,716423 (kG*k[5mC]*kA*dA*dA*dA*dT*dA*dG*dA*dG*dG*dA*kT*kT*kA; antisense) [Compound 716423],43 % UTC
3,716429 (kT*kG*kG*d[5mC]*dA*dT*d[5mC]*d[5mC]*dA*dT*d[5mC]*dA*dT*k[5mC]*k[5mC]*kA; antisense) [Compound 716429],28 % UTC

# Same assay, conditions: Table 18; A-431 cells, 5,000 cells per well, free uptake, 2,000 nM modified oligonucleotide, approx. 48 hours; RTS4814; normalized to RIBOGREEN; Yap1 mRNA as percent of untreated control
row,Substance,YAP1 (% UTC)
1,1075332 (kA*kG*k[5mC]*dG*dG*dG*dT*dT*dT*dA*dG*dA*dA*kT*kG*k[5mC]; antisense) [Compound 1075332],66 % UTC
2,1076036 (k[5mC]*kG*kT*dA*dA*dT*dT*dA*dG*dA*dA*dA*d[5mC]*kT*kT*kG; antisense) [Compound 1076036],19 % UTC

# Same assay, conditions: Table 19; A-431 cells, 5,000 cells per well, free uptake, 2,000 nM modified oligonucleotide, approx. 48 hours; RTS4814; normalized to RIBOGREEN; Yap1 mRNA as percent of untreated control
row,Substance,YAP1 (% UTC)
1,1075077 (antisense kT*kA*kT*dA*d[5mC]*dG*dG*dT*d[5mC]*d[5mC]*dA*dT*dA*kA*k[5mC]*kA) [Compound 1075077],35 % UTC
2,1076133 (k[5mC]*kA*kT*dA*d[5mC]*dT*dA*dA*dT*dT*dT*dG*dG*kT*kA*kA; antisense) [Compound 1076133],60 % UTC
3,1076421 (kA*kA*kT*dT*dA*dT*dG*dA*d[5mC]*d[5mC]*dT*d[5mC]*d[5mC]*kA*kT*kG; antisense) [Compound 1076421],65 % UTC
4,1074597 (antisense kA*kG*kT*dA*dT*dT*d[5mC]*dT*dA*dT*d[5mC]*d[5mC]*dA*kG*kG*kG) [Compound 1074597],5 % UTC

# Same assay, conditions: Table 20; Yap1 mRNA, percent of untreated control; 3-10-3 cEt gapmers targeting SEQ ID NO.: 1 and 2
row,Substance,YAP1 (% UTC)
1,1075526 (kT*kT*kT*dA*dA*dT*dT*dA*dA*dG*dG*dG*d[5mC]*k[5mC]*k[5mC]*kA; antisense) [Compound 1075526],110 % UTC
2,1074470 (k[5mC]*k[5mC]*k[5mC]*d[5mC]*d[5mC]*d[5mC]*dA*d[5mC]*d[5mC]*dG*dA*d[5mC]*d[5mC]*k[5mC]*kT*kG; antisense) [Compound 1074470],69 % UTC

# Same assay, conditions: Table 21; Yap1 mRNA, percent of untreated control; 3-10-3 cEt gapmers targeting SEQ ID NO.: 1 and 2
row,Substance,YAP1 (% UTC)
1,1074855 (antisense kG*kT*kG*d[5mC]*dA*dT*dT*dA*dA*dA*dG*dA*dA*kT*kT*k[5mC]) [Compound 1074855],29 % UTC
2,1076327 (kG*kA*kT*dA*dA*dG*d[5mC]*dA*dA*dG*dG*dT*dT*k[5mC]*kT*k[5mC]; antisense) [Compound 1076327],7 % UTC

# Same assay, conditions: Table 22; Yap1 mRNA as percent of untreated control; 3-10-3 cEt gapmers; single dose
row,Substance,YAP1 (% UTC)
1,1075016 (antisense kT*k[5mC]*kA*dG*dA*dA*dT*dA*dA*dG*dT*dA*dT*kG*kA*kT) [Compound 1075016],100 % UTC
2,1074312 (antisense kA*kT*kA*dT*dT*d[5mC]*d[5mC]*dG*d[5mC]*dA*dT*dT*dG*k[5mC]*k[5mC]*kT) [Compound 1074312],18 % UTC
3,1074184 (antisense kG*k[5mC]*k[5mC]*dG*dG*dT*dT*dG*dA*dG*dG*d[5mC]*dG*kG*k[5mC]*kG) [Compound 1074184],100 % UTC

# Same assay, conditions: Table 24; Yap1 mRNA as percent of untreated control; 3-10-3 cEt gapmers targeting SEQ ID NO.: 1, and 2
row,Substance,YAP1 (% UTC)
1,1074474 (k[5mC]*k[5mC]*kA*dA*d[5mC]*d[5mC]*d[5mC]*d[5mC]*d[5mC]*d[5mC]*d[5mC]*dA*d[5mC]*k[5mC]*kG*kA; antisense) [Compound 1074474],71 % UTC
2,1074346 (antisense kA*kT*k[5mC]*dT*dG*dA*dG*d[5mC]*dT*dA*dT*dT*dG*kG*kT*k[5mC]) [Compound 1074346],10 % UTC
3,1074154 (antisense k[5mC]*k[5mC]*kA*d[5mC]*dG*dG*dG*d[5mC]*d[5mC]*dG*dA*dG*dG*kT*kG*kG) [Compound 1074154],100 % UTC
4,1074378 (antisense kG*kA*kA*dA*d[5mC]*dG*dG*dT*dT*d[5mC]*dT*dG*d[5mC]*kT*kG*kT) [Compound 1074378],31 % UTC
5,1074282 (antisense k[5mC]*kG*kA*dG*dG*dG*dT*d[5mC]*dA*dA*dG*d[5mC]*d[5mC]*kT*kT*kG) [Compound 1074282],83 % UTC
6,1075562 (kG*kT*kA*dT*dT*dT*dA*dT*dG*dG*d[5mC]*dA*dA*k[5mC]*kA*kT; antisense) [Compound 1075562],15 % UTC
7,1075114 (antisense kG*kT*kA*dT*dA*dA*dA*dT*dA*d[5mC]*d[5mC]*dA*dG*kG*kT*kA) [Compound 1075114],26 % UTC
8,1076330 (kG*kA*kA*dT*dT*dA*dT*dA*d[5mC]*dT*dG*dG*d[5mC]*kT*kA*k[5mC]; antisense) [Compound 1076330],3 % UTC
9,1074314 (antisense kA*kT*kT*dG*dA*dT*dA*dT*dT*d[5mC]*d[5mC]*dG*d[5mC]*kA*kT*kT) [Compound 1074314],12 % UTC

# Same assay, conditions: Table 25; Yap1 mRNA as percent of untreated control; 3-10-3 cEt gapmers targeting SEQ ID NO.: 1, and 2
row,Substance,YAP1 (% UTC)
1,1075723 (kT*kT*kA*dT*d[5mC]*d[5mC]*dT*dA*dT*d[5mC]*d[5mC]*d[5mC]*dT*kG*kG*kT; antisense) [Compound 1075723],32 % UTC
2,1075211 (antisense kA*kA*kT*dA*dA*dA*dG*dG*dG*dT*d[5mC]*d[5mC]*dT*kA*kA*k[5mC]) [Compound 1075211],91 % UTC
3,1075019 (antisense k[5mC]*kA*kT*dT*dA*dG*dA*dG*dT*dT*dT*dG*dA*kT*kT*kA) [Compound 1075019],64 % UTC
4,1074315 (antisense kG*kA*kT*dT*dG*dA*dT*dA*dT*dT*d[5mC]*d[5mC]*dG*k[5mC]*kA*kT) [Compound 1074315],3 % UTC

# Same assay, conditions: Table 32; Yap1 mRNA, percent of untreated control; 3-10-3 cEt gapmers targeting SEQ ID NO.: 1, and 2
row,Substance,YAP1 (% UTC)
1,1075730 (kG*kT*kA*dT*dT*dT*dA*dA*dA*dA*dA*dT*dA*kG*k[5mC]*kG; antisense) [compound 1075730],92 % UTC
2,1075154 (k[5mC]*kA*kT*dT*dA*dT*dA*dA*dT*dG*dG*dG*dA*kG*kG*kA; antisense) [compound 1075154],13 % UTC
3,1075346 (antisense kG*kT*kA*dA*dG*dT*dA*dA*dA*dA*d[5mC]*dT*dG*k[5mC]*kT*kG) [compound 1075346],16 % UTC
4,1076146 (kG*k[5mC]*kT*dA*dA*dA*dA*d[5mC]*dT*dT*dT*d[5mC]*dA*kT*k[5mC]*k[5mC]; antisense) [compound 1076146],23 % UTC
5,1075666 (antisense kA*kA*kA*dT*dT*dT*dA*dG*dT*dT*dG*dT*dG*k[5mC]*kA*k[5mC]) [compound 1075666],106 % UTC

# Same assay, conditions: Table 33; Yap1 mRNA, percent of untreated control; 3-10-3 cEt gapmers targeting SEQ ID NO.: 1, and 2
row,Substance,YAP1 (% UTC)
1,1074995 (antisense kA*kA*kA*dA*d[5mC]*dT*dA*dA*dA*dT*dG*dG*dA*k[5mC]*k[5mC]*kG) [compound 1074995],50 % UTC
2,1074739 (kG*kA*k[5mC]*dT*d[5mC]*dT*dT*dA*dG*dG*dT*d[5mC]*dT*k[5mC]*k[5mC]*kT; antisense) [compound 1074739],24 % UTC

# Same assay, conditions: Yap1 mRNA as percent of untreated control; A-431 cells; 3-10-3 cEt gapmers targeting SEQ ID NO.: 1, and 2; Table 30
row,Substance,YAP1 (% UTC)
1,1074288 (antisense kG*kA*k[5mC]*dT*dG*dA*dT*dT*d[5mC]*dT*d[5mC]*dT*dG*kG*kT*kT) [compound 1074288],48 % UTC
2,1075312 (antisense kT*kT*kA*dA*dT*dT*dG*dA*dA*d[5mC]*dT*d[5mC]*dA*kG*kG*kG) [compound 1075312],37 % UTC

# Same assay, conditions: Yap1 mRNA as percent of untreated control; A-431 cells; 3-10-3 cEt gapmers targeting SEQ ID NO.: 1, and 2; Table 31
row,Substance,YAP1 (% UTC)
1,1074897 (antisense kG*kG*k[5mC]*dA*dA*dA*dG*dT*dT*d[5mC]*d[5mC]*dT*dA*kT*kG*k[5mC]) [compound 1074897],76 % UTC
2,1075601 (antisense kA*k[5mC]*kA*d[5mC]*dT*dA*dT*dA*dA*dT*d[5mC]*dT*dG*kA*k[5mC]*k[5mC]) [compound 1075601],50 % UTC
